Results from article PMC2573961 (PLoS ONE, 2008).
No end group written: not given here.

How the values were obtained:
[1] = system: ERAP1; assay: 40 ng of ERAP1 in 20 mM Tris pH 8 buffer containing 100 mM NaCl; details: human, 37°C, up to 1 hr
[2] = target: T1, human recombinant ERAP1 (Homo sapiens, UniProt Q9NZ08); assay: N-terminus trimming of model peptides by ERAP1, products analysed by reverse-phase HPLC; assay type: biochemical; details: alanine scan, 40 ng of ERAP1, three separate experiments in parallel; RP-HPLC; Figure 3A
T1 construct: we over-expressed human recombinant full-length ERAP1 in insect cell suspension culture; hexa-His (C); myc; made in house; host or cells: Hi5 insect cells (baculovirus; virus made in SF9 cells)
T1 sequence (Q9NZ08 1-948 isoform Q9NZ08-2): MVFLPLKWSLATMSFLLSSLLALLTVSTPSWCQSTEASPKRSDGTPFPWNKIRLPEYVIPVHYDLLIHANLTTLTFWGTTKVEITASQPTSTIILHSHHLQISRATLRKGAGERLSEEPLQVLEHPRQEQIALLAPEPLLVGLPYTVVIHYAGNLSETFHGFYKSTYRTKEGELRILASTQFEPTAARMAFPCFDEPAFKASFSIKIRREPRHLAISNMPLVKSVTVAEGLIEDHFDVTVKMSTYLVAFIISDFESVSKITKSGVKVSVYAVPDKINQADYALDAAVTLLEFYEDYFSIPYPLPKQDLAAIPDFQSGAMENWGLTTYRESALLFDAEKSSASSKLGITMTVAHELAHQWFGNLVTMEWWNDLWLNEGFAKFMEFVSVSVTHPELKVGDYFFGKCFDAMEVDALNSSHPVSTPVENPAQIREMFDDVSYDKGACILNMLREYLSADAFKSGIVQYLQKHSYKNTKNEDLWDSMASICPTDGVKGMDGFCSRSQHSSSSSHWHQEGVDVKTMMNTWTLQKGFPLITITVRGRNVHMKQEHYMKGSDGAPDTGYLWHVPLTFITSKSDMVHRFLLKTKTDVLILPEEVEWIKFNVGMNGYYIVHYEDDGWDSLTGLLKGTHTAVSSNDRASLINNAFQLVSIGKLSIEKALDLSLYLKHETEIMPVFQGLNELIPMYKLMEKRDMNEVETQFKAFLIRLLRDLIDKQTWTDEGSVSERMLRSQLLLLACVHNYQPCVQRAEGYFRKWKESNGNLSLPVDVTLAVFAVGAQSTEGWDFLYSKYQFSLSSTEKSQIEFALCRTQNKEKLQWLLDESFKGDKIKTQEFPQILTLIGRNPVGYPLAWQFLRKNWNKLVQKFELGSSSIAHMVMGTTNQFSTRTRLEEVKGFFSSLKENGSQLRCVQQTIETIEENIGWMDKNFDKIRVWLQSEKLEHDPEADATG
Procedure: Human recombinant ERAP1 was produced in Hi5 insect cells grown in Excel405™ serum free medium, after infection by baculovirus carrying the ERAP1 gene with a C-terminal hexa-His tag. The enzyme was secreted into the cell medium, which was harvested by centrifugation (3000 rpm, 30 min, 4°C, GSA rotor) in a Sorvall centrifuge. The cell supernatant was subjected to 3 rounds of buffer exchange (10 fold dilution each time) using a large scale diafiltration apparatus versus 5 mM phosphate buffer at pH 7 containing 100 mM NaCl. The supernatant was then concentrated and its composition adjusted to 50 mM phosphate (pH 8), 300 mM NaCl, 10 mM imidazole and immediately loaded onto a HiTrap™ chelating column (Qiagen) that was pre-loaded with Ni(II)SO4. The column was washed with the same buffer containing 20 mM imidazole and the protein was eluted using a 20 mM to 150 mM imidazole gradient. […]
The digestion of model peptides by ERAP1 was followed by analysis of peptide products of the digestion on a reverse phase C18 column (Higgins Analytical 0546-C183). […] The elution was done with a 5% to 40% acetonitrile gradient at 1 ml/min, while following the absorbance at 214 nm or 280 nm. […]
Figure 1 Typical chromatogram of peptide product analysis after ERAP1 digestion. Samples were analyzed by HPLC reverse phase chromatography. […]

[3] = system: ERAP1; assay: purified recombinant ERAP1 (alanine scan); details: human
[4] = system: ERAP1; assay: ERAP1, trimming rate measurements (pmol/µg ERAP1×sec); details: human
[5] = system: ERAP1; assay: 40 ng ERAP1; details: human, 37°C, up to 1 hr
[6] = system: ERAP1; assay: 1 nM ERAP1; details: human, 37°C, up to 1 hr
[7] = system: ERAP1; assay: 800 nM ERAP1; details: human, 37°C, up to 1 hr
[8] = system: ERAP1 (recombinant, Hi5 insect cells); assay: purified recombinant ERAP1 in 20 mM Tris pH 8, 100 mM NaCl; details: human, 37°C, up to 1 hr
[9] = system: ERAP1; assay: 15.6 nM of ERAP1; details: human, 37°C, up to 1 hr
[10] = system: ERAP1; assay: 7.8 nM of ERAP1; details: human, 37°C, up to 1 hr

LYAANATRSG
cleaved bond [1]: L-Y

LYWANATASG [LYWANATASG]
percent N-terminus trimming detected [2]: Less than 1%

LYWANATASG
not cleaved [3]: Less than 1% trimming
cleaved bond [4]: L-Y

LYWANATRSA
cleaved bond [1]: L-Y

LAAALSIINFEKL
not cleaved [5]: resistant to any trimming after 1 hr
not cleaved [1]: resistant to any trimming after 1 hr

LYWANATRSG
cleaved bond [3]: L-Y
cleaved bond [1]: L-Y

LVAFKARKF
cleaved bond [6]: L-V, 1 hr

LYWANAARSG
cleaved bond [1]: L-Y

LTAEEAVET
not cleaved [7]: completely resistant to trimming after 1 hr with 800 nM ERAP1
cleaved bond [4]: L-T

LYWANATRAG
cleaved bond [1]: L-Y

AYWANATRSG
cleaved bond [1]: A-Y

FYWANATRSG
cleaved bond [1]: F-Y, 1 hr
cleaved bond [8]: F-Y, 1 hr

LVNVDYSAL
cleaved bond [9]: L-V, 1 hr

LVNVDYSKL
cleaved bond [9]: L-V, 1 hr

LSIINFEKLAAAL
cleaved bond [1]: L-S, 1 hr

LSIINFEKL
cleaved bond [10]: L-S
cleaved bond [1]: L-S, 1 hr

LAWANATRSG
cleaved bond [1]: L-A

MYWANATRSG
cleaved bond [1]: M-Y

LYWAAATRSG
cleaved bond [1]: L-Y

LSIINFEAL
cleaved bond [10]: L-S, 1 hr
